In patent US20110076331A1, “Use of Deuterium Oxide as an Elastase Inhibitor” (priority 2008, published 2011):

Legend:
[1] = test system: white New Zealand rabbits; assay: Animal model for myocardial reperfusion damage (coronary artery ligature); assay type: in vivo, rabbit; details: intravenous D2O isotonic saline 15 minutes before or 25 minutes after reopening of the coronary artery; vs H2O-treated animals
Description: In an animal model for reperfusion damage a reduced blood supply to the heart muscle tissue was achieved by ligature of a coronary artery in male white New Zealand rabbits, which led to damage (Bidouard, J. P. et al.; SSR69071, an elastase inhibitor, reduces myocardial infarct size following ischemia reperfusion injury, Eur J Pharmacol. 2003; 461:49-52). By thoracotomy a side branch of the left coronary artery was closed by ligature for 30 minutes and then opened again in order to achieve reperfusion over 120 minutes. Before removal of the heart an ink bolus (pelican ink) was introduced to the ascending aorta. To investigate the effect of D2O on reperfusion damage the animals were divided into three groups of two animals each. Two groups received an intravenous treatment with D2O in the form of isotonic saline either 15 minutes before (experimental group 1) or 25 minutes after (experimental group 2) reopening of the coronary artery, the other group (control group) was treated with H2O as isotonic saline. After removal of the heart, unclamping of the aorta, formalin fixation and paraffin embedding the heart was investigated for homogeneity of ink distribution in the capillary system through three cross sections and by immunohistochemistry. The immunohistochemical detection of granulocytes occurred by a-naphthol chloroacetate esterase staining. […]

Syrian Gold hamsters = assay: D2O instillation in an animal model of COPD (HNE-induced hemorrhage); assay type: in vivo, hamster
Description: To investigate the effect of D2O in a model for chronic obstructive pulmonary disease (COPD) male Syrian Gold hamsters (average weight 118 g±4 g) were divided into two groups (experimental group and control group) of 10 hamsters each. The animals of both groups were initially anesthetized intraperitoneally (ketamine 95 mg/kg and xylazine 17 mg/kg) and then intubated endotracheally with direct laryngoscopy. The experimental group received 250 μL of 0.9% NaCl solution based on D2O (98.5% deuterium enrichment) instilled, whereas 250 μL of a corresponding isotonic NaCl solution based on H2O was used in the control group. Each animal received after the end of this instillation a second instillation at a time interval of 30 minutes, which was identical for both groups: 100 μL of human neutrophil elastase (HNE, 500 μg/mL in sterile 0.9% NaCl solution). The animals were killed 4 hours (six animals per group) or 24 hours (four animals per group) after the last instillation (phenobarbital 70 mg/kg intraperitoneally).
For the animals killed 4 hours after instillation a BAL (bronchoalveolar lavage) was performed. 2.5 mL 0.9% NaCl solution was repeatedly instilled (total 3 times) for BAL and the hemoglobin concentration in the instillate then determined spectrophotometrically. The obtained value was used as a gauge for lung damage (hemorrhage) by human neutrophil elastase (HNE). For the control group an average hemoglobin value of 320±50 mOD (milli-optical density) was obtained. For the experimental group an average hemoglobin value of 170±20 mOD was measured.
For the animals killed 24 hours after instillation the lungs were removed, fixed in formalin and embedded in paraffin. Histologic longitudinal sections of the lungs in the direction of the lung hilus were prepared, stained and made visible with iron by means of an histochemical reaction (Berlin blue reaction), which serves as a gauge for the intensity of HNE-induced hemorrhage. The microscopic investigation of the sections gave the following result: […]

[2] = test system: subjects with the minor form of RBA; assay: Gel treatment of recurring benign aphthosis (RBA); assay type: in vivo, human; details: D2O gel (example 1) three times a day; three days after first application
Description: Eight volunteer subjects with the minor form of RBA (diameter of round to oval erosion is 3-5 mm) at locations of the oral mucosa readily accessible to optical inspection (and especially cheek mucosa and mucosa in the lower jaw area) were randomized into two groups of four subjects each (experimental group and control group) and the size (diameter) of the aphthae (initial value) was determined precisely at 0.5 mm optically. For size determination only the gray-covered eroded surface was considered and the red edge area was not considered. The first aphthosis symptoms of the subjects in both groups were at least 2 days old and at most 4 days old. The experimental group received a D2O gel prepared according to example 1 three times a day applied with an appropriate applicator to the erosion (aphtha). It was ensured that the applied gel covered the entire surface of the aphtha plus a 2-3 mm wide edge and was allowed to act at least for 5 minutes. The control group was treated similarly with an identical dose and application of an H2O prepared according to example 1. […] For the experimental group an average reduction in diameter relative to the initial value of 30±10% can be detected and in the control group an average increase in aphthae diameter by 15±10% was observed.

SMILES: [2H]O[2H] [D2O, deuterium oxide]
- heart muscle damage (granulocytes, capillary ink marking) [1]: significantly lower heart muscle damage
- average hemoglobin value in BAL (Syrian Gold hamsters; 250 μL 0.9% NaCl solution based on D2O instilled 30 minutes before HNE, animals killed 4 hours after instillation): 170±20 mOD
- blue-stained cells in lung sections (Berlin blue reaction), intensity of HNE-induced hemorrhage (Syrian Gold hamsters; animals killed 24 hours after instillation, vs H2O control group): significantly smaller number of blue-stained cells
- inhibition of the acute lung damage caused by elastase (hemorrhage) (Syrian Gold hamsters; instillation, from reduction in hemoglobin concentration in BAL vs H2O control group, 4 hours): 47%
- average reduction in aphthae diameter relative to the initial value [2]: 30±10%
